Entries after “also recorded” stand apart in the source; their conditions may differ. Where two headings read alike, the source gives them in different places.

The subject of test [1] is calcium signal in the retina. In words: Calcium transients in calcium transgenic mouse eye (FCIPs) in vivo. The conditions noted are these: intravitreal; vs baseline. The text has this: FIG. 13C Calcium transgenic mice with genetically-encoded fluorescent Ca2+ indicator proteins (FCIPs) were imaged in vivo. Aβ25-35-induced calcium transients in a calcium transgenic mouse eye. […] Analysis of the fluorescent signal after Aβ injection at t=o, is shown graphically with fluorescence seen in the areas Identified by coloured boxes in inset (D,E).

Test [2] has as its system mitochondrial membrane potential in the retina. In words: Mitochondrial membrane potential (MMP) in mouse eye in vivo, Rho123 fluorescence. As to the method: FIG. 11B. Early investigations show the effects of intravitreal rotenone on mitochondrial membrane potential (MMP) in a mouse eye in vivo.
FIG. 11C. Using the same analysis, we looked at the effects of Aβ25-35 on MMP in vivo in a mouse eye. Rho123 is a fluorescent probe, used to detect the changes in mitochondrial fluorescent density. […] The dashed line in C represents baseline fluorescence before Rho123 was injected

Test [3] concerns RGC. To be noted: previously established; cited from earlier work.
In test [4] the test system is ROS production in the retina. In words: ROS production in mouse retina in vivo visualized with DHE. To be noted: intravitreal; vs vehicle/control eye. The method, then: FIG. 12B. The effects of rotenone on ROS production in mouse retina in vivo. ROS production visualized with DHE (dihydroethidium). DHE is a non-fluorescent agent, reacting with ROS intracellularly to produce a fluorescent oxidative product which can be detected. Rotenone (50 uM, 1 ul) was intravitreally injected into the one eye (C57) and the same volume of vehicle (saline) injected into the contralateral eye. DHE (1 ul) was then injected intravitreally and both eyes imaged to detect ROS production using a SLO machine.
FIG. 12C. The effects of PMA in producing ROS in mouse retina in vivo. PMA (50 ug/ml, 1 ul) was injected intravitreally into the one eye and saline (1 ul) into the contralateral eye. DHE (1 ul) was simultaneously injected for detecting ROS production.
FIG. 12D. The effects of Aβ25-35 on ROS production in vivo. DHE was intravitreally injected into the both eyes of a mouse to detect ROS production.

Test [5] relates to RGC. In words: Abeta (Aβ25-35)-induced RGC death model, in vivo cSLO imaging with annexin V and PI. The arrangement: species or system mouse. The method, then:
For the analysis of Abeta, freshly made Aβ25-35 (Sigma-Aldrich, 3.40 nmol) (Dahlgren et al., 2002) was intravitreally injected into C57 mice (n=10) (Maass et al., 2007). Animals were imaged at 72 hours. For AD 3× Tg-AD studies, 4 eyes (all female, 14 months) with 2 eyes from aged control mice (PS1KI; female, 18 months) were assessed. 3× Tg-AD and control PS1KI mice were obtained from a colony (maintained at CeSI) established after a generous gift of Frank Laferla. Intravitreal phorbol myristate acetate (1 μl of 10 μg/ml) was administered to left eyes of 3× Tg-AD animals, at the same time as annexin V and PI.
Using a method the inventors have recently described, rats were given 2.5 μg of intravitreal Alexa Fluor 488 labelled annexin V in 5 μl PBS for identification of RGC apoptosis, 2 hours before in vivo imaging (Cordeiro et al., 2004). For mice, the inventors used 1 μl of a 0.25 mg/ml solution of IR-labelled annexin (Annexin-IR) in intravitreal injections as previously described (Schmitz-Valckenberg et al., 2008).
In order to identify necrotic RGCs in rats (2 μl) and mice (1 μl), propidium iodide (PI; 0.4 mg/ml, 1% solution, Sigma-Aldrich, Dorset UK) was administered intravitreally at the same time as annexin, 2 hours before in vivo imaging. PI intercalates into nucleic acids, binding to double-stranded DNA, but only crosses the plasma membrane of non-viable cells. Cells that have lost membrane integrity are thus identified by fluorescent red PI staining throughout the nuclei.
In mice, the inventors used instrumentation as previously described (Maass et al., 2007; Schmitz-Valckenberg et al., 2008), with a modified cSLO (Heidelberg Retina Angiograph 2, Heidelberg Engineering, Dossenheim, Germany) and a wide-field lens (55°). The fluorescein angiogram (488 nm argon laser) and indocyanine green (IR 790 nm diode laser) settings were used to detect PI and IR-labelled annexin respectively. The same software was used to analyse video sequenced images as described before with whole retinal monochrome images from each eye recorded and colourised. Dual-color images were produced by combining each of the grayscale images from the cSLO into the red (PI), and green (IR annexin) of an RGB color image.
The left eye of each animal was treated with intravitreal 0.40 nmol MK801 at the same time as Abeta. Wide-angle retinal images were recorded 2 hours following intravitreal annexin (green) and PI (red), as previously described (Guo at al., 2006).
To assess the relative levels of early apoptosis, late apoptosis and necrosis the inventors studied the co-localization of PI and annexin V using ImageJ software with the Intensity Correlation Analysis plugin (Li et al., 2004). Colour and raw scatter plots of annexin and PI fluorescence intensity were constructed from plugin-generated data for each animal. Corresponding scatter plots (blue) from the eyes shown in FIG. 8a-b are illustrated in FIG. 8c-d. The data were analysed in a similar manner to data derived by in vitro FACS analysis, with four quadrants (midlines shaded in colour overlay as red, green, blue and yellow) enabling separation of the different phases of cell death as annexin V positive (early apoptosis, green), annexin V and PI double positive (late apoptosis, yellow) and PI positive (necrosis, red). Thresholds were set automatically by the plugin for each analysis of each eye. The inventors then used fluorescence intensity counts from the raw scatter plots to quantify each phase of cell death.
To further assess the analytical power of the technique, the inventors next investigated whether the level of oxidative stress in Abeta-treated eyes influenced the phase of cell death and whether this was possible to visualize in vivo. […] FIG. 8f-g are taken from the right untreated (F) and left PMA-treated (G) eye of an animal treated 72 hours previously with 3.40 nmol Aβ25-35. […]

Test [6] has as its system calcium signals in the retina. In words: Calcium signals in vivo in a mouse eye, Fura red. The conditions noted are these: ten minutes after 5 nmol; vs pre-treatment, p<0.001. The text has this: FIG. 13B. The effects of Aβ25-35 on calcium signals in vivo in a mouse eye. […] Ten minutes after Aβ25-35 (5 nmol) application (as shown D) however, a stronger fluorescent signal was detected in the RGCL (C).

Test [7] has as its system RGCs. To be noted: rat; cited from earlier work.
The test system of test [8] is RGC. The conditions noted are these: topical application; cited from earlier work.
For test [9] the following is noted: human, in vivo; cited from earlier work.
The subject of another test is cortical neurons. The conditions noted are these: cited from earlier work.
The conditions of test [10]: in comparison to 360° laser trabeculoplasty; cited from earlier work.
Test [11] concerns RGC. To be noted: rat, in vivo; cited from earlier work.
Test [12] relates to retina autofluorescence (NADH, FAD). The conditions noted are these: intravitreal administration.
Excerpt: Detection of FCCP-induced retinal metabolic changes in vivo in a mouse eye.
Test [13] relates to RGCs. To be noted: cited from earlier work.
The next test deals with retinal neurons. To be noted: in vitro; cited from earlier work.
A further test has as its system cortical astrocytes. To be noted: 1 mM glutamate or 10 mM methyl-succinate; cited from earlier work.
For the next test, the system named is control cells. To be noted: cited from earlier work.
Test [14] deals with RGC. The conditions noted are these: previously established; cited from earlier work. This is another data set of the same source.
The subject of test [15] is RGC. Put plainly: Staurosporine (SSP)-induced RGC apoptosis model, time-lapse in vivo imaging. The arrangement: species or system rat. As to the method:
For analysis of staurosporine-induced RGC apoptosis, 14 DA rats received 0.5 μg of intravitreal staurosporine (SSP) in 5 μl phosphate-buffered saline (PBS); both Sigma Aldrich UK, to induce RGC apoptosis as previously described (Cordeiro et al., 2004). Animals were imaged immediately for up to 6 hours, after which they were killed for histology.
Using a method the inventors have recently described, rats were given 2.5 μg of intravitreal Alexa Fluor 488 labelled annexin V in 5 μl PBS for identification of RGC apoptosis, 2 hours before in vivo imaging (Cordeiro et al., 2004). For mice, the inventors used 1 μl of a 0.25 mg/ml solution of IR-labelled annexin (Annexin-IR) in intravitreal injections as previously described (Schmitz-Valckenberg et al., 2008). […]
All rats had in vivo retinal imaging performed at regular and set intervals after experimental treatment, using a prototype Zeiss confocal scanning laser ophthalmoscope (cSLO), as previously described (Cordeiro et al., 2004; Maass et al., 2007). […] Colour and raw scatter plots of annexin and PI fluorescence intensity were constructed, so data could be analysed in a similar manner to data derived by in vitro FACS analysis. […] Fluorescence intensity counts derived from raw scatter plots were used to quantify each phase of cell death. […]

As for “Aβ25-35: amyloid beta peptide fragment 25-35 (Sigma-Aldrich), induces RGC apoptosis (GSNKGAIIGLM; Amyloid-beta protein 42; UniProt P05067 696-706, looked up, fragment)”, the “fluorescent calcium signal in the retina” value in test [1] is recorded as “immediate fluorescent calcium signal”. In addition, the “MMP in the retina (Rho123)” value in [2] (vs baseline, few minutes delay, p<0.01) is reported as “significant loss”. Besides, the “time point of maximal apoptosis” value in the test on RGC [3] is listed as 72 h. Moreover, the “ROS production in the retina (DHE fluorescence)” value in test [4] is “significant increase of ROS production”. Moreover, the “cell death profile (phases) at time of peak apoptosis” value in the test with RGC [5] (72 h, co-localization scatter plot analysis, listed as Abeta) is “significantly more cells in the late phase of apoptosis; also recorded: significantly more RGCs in the phases of late apoptosis”. Also, in the test on RGC [5] (72 hours after intravitreal administration of 3.40 nmol), the RGC death entry was “Significant RGC death”. Also, the “calcium signals in the retina (Fura red)” value in test [6] is listed as “significant increase”.

Consider glatiramer acetate [Cop-1], for which the “activity on RGCs in vivo” value in the test on RGCs [7] was “neuroprotective activity”.

Turning to NGF: nerve growth factor, the RGC apoptosis result with RGC [8] is listed as “reducing”. In addition, the “functional effect in patients” value in test [9] is listed as “neuroprotective effects functionally”.

With `C[C@]12CC[C@@H]3c4ccc(O)cc4CC[C@H]3[C@@H]1CC[C@@H]2O` [17β-estradiol], the “neuronal integrity and function” value with cortical neurons was “increased”.

Turning to `Brc1c(NC2=NCCN2)ccc2nccnc12` [Brimonidine], in [10], the visual field deterioration entry is reported as “reduced”. In addition, the RGC survival entry in the test on RGC [11] is recorded as “positive effect”.

On to `N#CC(C#N)=NNc1ccc(OC(F)(F)F)cc1` [FCCP, Carbonylcyanide-p-trifluoromethoxy-phenylhydrazone], for which the “real time autofluorescence in the retina” value in [12] was “increase”.

For `COc1ccc2[nH]cc(CCNC(C)=O)c2c1` [Melatonin], the “effect on RGCs in vivo” value with RGCs [13] is on record as “neuroprotective effect”. The “protection of retinal neurons” value in the test on retinal neurons is recorded as “protected”.

On to `N[C@@H](CCC(=O)O)C(=O)O` [glutamate], for which the “slow progressive mitochondrial depolarization in response to Aβ 25-35” value in the test with cortical astrocytes is “abolished almost completely”.

`C=C(C)[C@H]1Cc2c(ccc3c2O[C@@H]2COc4cc(OC)c(OC)cc4[C@@H]2C3=O)O1` [Rotenone]: the “mitochondrial membrane depolarization (Rho123 signal)” value in [2] (intravitreal 20 uM, 1 ul, vs vehicle control) is “significant mitochondrial membrane depolarization”. Further, the “ROS production (MitoSox)” value with control cells is recorded as “significant increase”. The “ROS production in the retina (DHE fluorescence)” value in [4] is “stronger fluorescent signals of ROS production”.

As to `CN[C@@H]1C[C@H]2O[C@@](C)([C@@H]1OC)n1c3ccccc3c3c4c(c5c6ccccc6n2c5c31)C(=O)NC4` [SSP, staurosporine], the “time point of maximal apoptosis” value with RGC [14] is recorded as 2 h. Moreover, the “cell death profile (phases) at time of peak apoptosis” value in the test on RGC [15] (2 h, co-localization scatter plot analysis) is reported as “significantly more cells in the late phase of apoptosis; also recorded: significantly more RGCs in the phases of late apoptosis”. The “PI staining over time” value in the test with RGC [15] (SSP-treated rat eye, time-lapse video over 5 hours) is “clear increase”.
